According to ChEMBL document CHEMBL1201862, “PubChem BioAssay data set” (2004):
Calls of active or inactive are those of the source.

How the values were obtained:
[1] = cytotoxicity toward NIH3T3 fibroblasts, dose response, counter-screen, cell-based, ATP luminescence, mouse fibroblasts (AID 2010); assay type: functional;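 further: cells exposed to compound for about 90 hours before reading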
[2] = inhibitors of intracellular T. cruzi replication, confirmation, NIH3T3 host cells, beta-gal luminescence (AID 2044); assay type: functional, cell-based;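 further: intracellular parasites grown in NIH/3T3 mouse fibroblasts as host cells; luminescent beta-galactosidase reporter signal from transgenic T. cruzi replicating inside host cells; inhibitors lower the luminescence signal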
Estrogen receptor beta [3] = molecular target: T1, Estrogen receptor beta (Homo sapiens, UniProt Q92731);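 further: recombinant ER-beta bound to coactivator SRC1 peptide in presence of estradiol agonist; inhibitors block coactivator peptide binding and lower the FRET signal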
Estrogen receptor beta [4] = molecular target: T1, Estrogen receptor beta; test: ERβ–SRC-3 coactivator interaction inhibitors, confirmation, orthogonal assay, biochemical, ELISA, streptavidin-HRP readout (AID 1060)
[5] = molecular target: Serine/threonine-protein phosphatase PP1-alpha catalytic subunit (Homo sapiens, UniProt P62136); test: PP1 phosphatase inhibitors, dose response, biochemical, fluorescence (AID 2394)
Bcl-2-like protein 10 = molecular target: T2, Bcl-2-like protein 10 (Homo sapiens, UniProt Q9HD36); test: displacers of TR3 peptide from Bcl-B, primary screen, selectivity assay for Bfl-1 inhibitor project, biochemical, fluorescence polarization, FITC-TR3 peptide (AID 748);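 further: fluorescence polarization from a fluorescein-labelled TR3 peptide binding purified Bcl-B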
T2 sequence (Q9HD36 whole entry): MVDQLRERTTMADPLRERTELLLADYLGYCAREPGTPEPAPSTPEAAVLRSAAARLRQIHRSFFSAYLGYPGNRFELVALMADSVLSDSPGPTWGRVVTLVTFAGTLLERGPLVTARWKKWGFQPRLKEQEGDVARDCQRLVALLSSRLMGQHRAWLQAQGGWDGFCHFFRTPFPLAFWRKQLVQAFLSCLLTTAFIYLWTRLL

Genome polyprotein = Genome polyprotein (dengue virus type 2, UniProt P29990); test: Dengue-2 NS5 methyltransferase inhibitors, primary screen, biochemical, confirmation dose response (AID 588689); assay type: functional
[6] = molecular target: T3, Apoptotic protease-activating factor 1 (Homo sapiens, UniProt O14727); assay type: functional
T3 sequence (O14727 whole entry): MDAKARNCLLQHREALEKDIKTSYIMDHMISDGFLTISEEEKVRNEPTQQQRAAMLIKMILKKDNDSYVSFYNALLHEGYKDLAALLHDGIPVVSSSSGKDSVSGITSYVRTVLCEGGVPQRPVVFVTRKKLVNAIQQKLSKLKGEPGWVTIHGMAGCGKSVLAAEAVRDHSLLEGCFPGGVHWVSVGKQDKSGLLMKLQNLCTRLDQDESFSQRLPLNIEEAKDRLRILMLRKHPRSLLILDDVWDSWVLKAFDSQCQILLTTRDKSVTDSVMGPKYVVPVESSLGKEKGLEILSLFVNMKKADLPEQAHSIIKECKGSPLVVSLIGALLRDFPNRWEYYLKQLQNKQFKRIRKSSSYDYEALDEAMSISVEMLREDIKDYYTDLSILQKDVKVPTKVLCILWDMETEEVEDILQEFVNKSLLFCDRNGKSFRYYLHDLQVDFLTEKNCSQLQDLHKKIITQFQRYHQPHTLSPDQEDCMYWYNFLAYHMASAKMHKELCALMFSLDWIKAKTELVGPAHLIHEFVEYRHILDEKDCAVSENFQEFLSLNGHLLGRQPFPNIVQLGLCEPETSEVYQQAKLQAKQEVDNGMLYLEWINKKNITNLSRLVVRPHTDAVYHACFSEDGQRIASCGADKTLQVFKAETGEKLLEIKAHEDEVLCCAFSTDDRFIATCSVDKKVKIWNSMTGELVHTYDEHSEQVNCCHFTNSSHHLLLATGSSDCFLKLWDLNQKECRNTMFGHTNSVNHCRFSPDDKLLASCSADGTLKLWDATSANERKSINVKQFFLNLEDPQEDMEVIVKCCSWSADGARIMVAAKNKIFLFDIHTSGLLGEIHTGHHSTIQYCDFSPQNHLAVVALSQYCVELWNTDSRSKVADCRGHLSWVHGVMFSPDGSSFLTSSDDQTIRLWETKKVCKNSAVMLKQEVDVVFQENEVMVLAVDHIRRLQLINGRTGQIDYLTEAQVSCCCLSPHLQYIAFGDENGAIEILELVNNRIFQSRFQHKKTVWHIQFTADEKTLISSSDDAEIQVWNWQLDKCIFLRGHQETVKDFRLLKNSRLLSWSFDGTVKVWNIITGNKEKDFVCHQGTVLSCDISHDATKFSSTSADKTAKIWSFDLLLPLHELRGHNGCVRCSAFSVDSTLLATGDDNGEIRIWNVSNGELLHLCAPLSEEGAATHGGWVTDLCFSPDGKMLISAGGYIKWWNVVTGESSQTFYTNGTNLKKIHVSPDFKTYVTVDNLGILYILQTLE

[7] = molecular target: T4, Serine/threonine-protein phosphatase (Homo sapiens, UniProt Q9BPW0); test: PP5 phosphatase inhibitors, dose response, biochemical, fluorescence (AID 2395)
T4 sequence (Q9BPW0 whole entry): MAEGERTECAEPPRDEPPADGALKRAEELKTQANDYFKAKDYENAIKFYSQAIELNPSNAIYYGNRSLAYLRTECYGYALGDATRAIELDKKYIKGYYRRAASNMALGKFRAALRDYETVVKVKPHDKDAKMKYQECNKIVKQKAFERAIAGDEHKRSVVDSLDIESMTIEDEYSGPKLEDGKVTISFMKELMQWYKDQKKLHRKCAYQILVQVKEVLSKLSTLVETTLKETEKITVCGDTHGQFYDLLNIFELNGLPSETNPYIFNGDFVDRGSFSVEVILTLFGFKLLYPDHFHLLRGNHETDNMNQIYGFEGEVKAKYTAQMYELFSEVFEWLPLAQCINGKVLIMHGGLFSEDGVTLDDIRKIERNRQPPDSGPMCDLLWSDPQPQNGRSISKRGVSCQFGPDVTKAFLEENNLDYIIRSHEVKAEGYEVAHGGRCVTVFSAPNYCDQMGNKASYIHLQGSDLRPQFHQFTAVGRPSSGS

X-box-binding protein 1 = X-box-binding protein 1 (Homo sapiens, UniProt P17861); assay type: functional, Cricetulus griseus;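 further: confirmatory dose-response counter-screen serving a CHOP assay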
Fatty acid synthase [8] = molecular target: T5, Fatty acid synthase (Homo sapiens, UniProt P49327); test: FAS thioesterase domain inhibitors, dose response, biochemical, endpoint fluorescence intensity, uHTS hits (AID 624327); assay type: functional;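 further: fluorescence from hydrolysis of an O-methyl fluorescein acyl ester substrate by the enzyme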
Fatty acid synthase [9] = molecular target: T5, Fatty acid synthase; test: FAS thioesterase domain inhibitors, dose response, biochemical, kinetic fluorescence intensity (AID 624326); assay type: functional;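 further: rate of fluorescence rise from hydrolysis of a fluorogenic O-methyl fluorescein ester substrate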
[10] = molecular target: Melanin-concentrating hormone receptor 1 (Homo sapiens, UniProt Q99705); test: Fluorescence-based counterscreen for antagonists of the G-protein coupled receptor 7 (GPR7): cell-based high throughput dose response assay to identify antagonists of the melanin-concentrating hormone receptor 1 (MCHR1).; assay type: functional
[11] = molecular target: T6, Neuropeptides B/W receptor type 1 (Homo sapiens, UniProt P48145); test: Fluorescence-based dose response cell-based high throughput screening assay to identify antagonists of the G-protein coupled receptor 7 (GPR7). [Related pubchem assays: 1952 (Screening assay (GPR7 antagonists).), 1880 (Summary AID.)]; assay type: functional
T6 sequence (P48145 whole entry): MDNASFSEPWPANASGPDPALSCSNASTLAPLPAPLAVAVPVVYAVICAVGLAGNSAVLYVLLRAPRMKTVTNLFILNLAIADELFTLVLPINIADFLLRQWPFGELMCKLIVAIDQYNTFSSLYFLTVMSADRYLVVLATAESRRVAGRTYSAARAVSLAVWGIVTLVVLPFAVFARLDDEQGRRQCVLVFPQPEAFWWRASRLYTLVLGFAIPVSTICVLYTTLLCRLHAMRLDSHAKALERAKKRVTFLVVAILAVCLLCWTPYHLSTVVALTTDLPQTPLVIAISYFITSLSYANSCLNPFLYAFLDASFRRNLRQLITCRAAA

[12] = molecular target: Acyl-homoserine lactone acylase PvdQ (Pseudomonas aeruginosa (strain LESB58), UniProt Q9I194); test: P. aeruginosa PvdQ acylase inhibitors, dose response, biochemical, fluorescence, plate reader and imaging, cherry-picks (AID 493231)
[13] = molecular target: T7, Heat shock factor protein 1 (Mus musculus, UniProt P38532); test: HSF1 potentiators in luciferase reporter cells, confirmation, cell-based, NIH3T3, luminescence, dose retest (AID 435004); assay type: functional;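 further: stress induced by proteasome inhibitor MG132 added 30 min after compound; luciferase reporter driven by HSF1 response element in NIH3T3 cells; actives raise luminescence as potentiators of the MG132 stress response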
T7 sequence (P38532 whole entry): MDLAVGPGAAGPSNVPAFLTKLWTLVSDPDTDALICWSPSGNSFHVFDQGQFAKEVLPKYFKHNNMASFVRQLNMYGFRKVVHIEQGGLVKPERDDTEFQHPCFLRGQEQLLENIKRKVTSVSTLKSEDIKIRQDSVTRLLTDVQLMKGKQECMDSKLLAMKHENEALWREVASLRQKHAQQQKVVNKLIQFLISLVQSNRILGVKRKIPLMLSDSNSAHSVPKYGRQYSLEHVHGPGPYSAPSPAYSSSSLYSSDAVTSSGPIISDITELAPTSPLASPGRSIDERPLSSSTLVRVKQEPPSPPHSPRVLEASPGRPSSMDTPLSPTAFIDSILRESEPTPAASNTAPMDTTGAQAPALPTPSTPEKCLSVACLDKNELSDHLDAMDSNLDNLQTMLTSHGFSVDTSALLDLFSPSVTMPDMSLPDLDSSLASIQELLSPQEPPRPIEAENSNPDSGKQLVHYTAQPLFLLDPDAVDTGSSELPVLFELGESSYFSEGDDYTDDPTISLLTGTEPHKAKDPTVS

Vero = test: Vero E6 cell cytotoxicity, SAR follow-up, cytotoxicity control for West Nile virus antiviral project, synthesized analogs (AID 2244); assay type: functional; conditions: Chlorocebus sabaeus
Mucolipin-3 = molecular target: T8, Mucolipin-3 (Homo sapiens, UniProt Q8TDD5); test: Dose response cell-based high-throughput screening assay for agonists of the transient receptor potential channel ML3 (TRPML3). [Related pubchem assays: 1526, 1424, 1448 ]; assay type: functional
T8 sequence (Q8TDD5 whole entry): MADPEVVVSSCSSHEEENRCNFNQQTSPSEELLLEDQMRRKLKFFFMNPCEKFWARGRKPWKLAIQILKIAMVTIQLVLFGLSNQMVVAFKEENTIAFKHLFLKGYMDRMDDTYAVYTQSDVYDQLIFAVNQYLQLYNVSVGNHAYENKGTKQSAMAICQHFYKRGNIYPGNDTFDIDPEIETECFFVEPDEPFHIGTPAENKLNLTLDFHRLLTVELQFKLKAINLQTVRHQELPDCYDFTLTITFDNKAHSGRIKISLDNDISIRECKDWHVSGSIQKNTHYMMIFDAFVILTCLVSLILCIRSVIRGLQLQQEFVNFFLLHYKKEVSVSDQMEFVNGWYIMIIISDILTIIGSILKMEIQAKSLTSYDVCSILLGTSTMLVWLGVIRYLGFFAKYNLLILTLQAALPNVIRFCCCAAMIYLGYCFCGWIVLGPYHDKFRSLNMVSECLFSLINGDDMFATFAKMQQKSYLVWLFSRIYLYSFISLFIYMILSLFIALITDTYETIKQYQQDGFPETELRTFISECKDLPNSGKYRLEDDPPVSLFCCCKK

Ion channel NompC = Ion channel NompC (Danio rerio, UniProt Q7T1G6); test: Fluorescence counterscreen assay for TRPML3 agonists: dose response cell-based high-throughput screening assay to identify agonists of the transient receptor potential channel N1 (TRPN1). [Related pubchem assays: 1526, 1424, 1448 ]; assay type: functional

T5 sequence (P49327 whole entry, the tested form may be a part): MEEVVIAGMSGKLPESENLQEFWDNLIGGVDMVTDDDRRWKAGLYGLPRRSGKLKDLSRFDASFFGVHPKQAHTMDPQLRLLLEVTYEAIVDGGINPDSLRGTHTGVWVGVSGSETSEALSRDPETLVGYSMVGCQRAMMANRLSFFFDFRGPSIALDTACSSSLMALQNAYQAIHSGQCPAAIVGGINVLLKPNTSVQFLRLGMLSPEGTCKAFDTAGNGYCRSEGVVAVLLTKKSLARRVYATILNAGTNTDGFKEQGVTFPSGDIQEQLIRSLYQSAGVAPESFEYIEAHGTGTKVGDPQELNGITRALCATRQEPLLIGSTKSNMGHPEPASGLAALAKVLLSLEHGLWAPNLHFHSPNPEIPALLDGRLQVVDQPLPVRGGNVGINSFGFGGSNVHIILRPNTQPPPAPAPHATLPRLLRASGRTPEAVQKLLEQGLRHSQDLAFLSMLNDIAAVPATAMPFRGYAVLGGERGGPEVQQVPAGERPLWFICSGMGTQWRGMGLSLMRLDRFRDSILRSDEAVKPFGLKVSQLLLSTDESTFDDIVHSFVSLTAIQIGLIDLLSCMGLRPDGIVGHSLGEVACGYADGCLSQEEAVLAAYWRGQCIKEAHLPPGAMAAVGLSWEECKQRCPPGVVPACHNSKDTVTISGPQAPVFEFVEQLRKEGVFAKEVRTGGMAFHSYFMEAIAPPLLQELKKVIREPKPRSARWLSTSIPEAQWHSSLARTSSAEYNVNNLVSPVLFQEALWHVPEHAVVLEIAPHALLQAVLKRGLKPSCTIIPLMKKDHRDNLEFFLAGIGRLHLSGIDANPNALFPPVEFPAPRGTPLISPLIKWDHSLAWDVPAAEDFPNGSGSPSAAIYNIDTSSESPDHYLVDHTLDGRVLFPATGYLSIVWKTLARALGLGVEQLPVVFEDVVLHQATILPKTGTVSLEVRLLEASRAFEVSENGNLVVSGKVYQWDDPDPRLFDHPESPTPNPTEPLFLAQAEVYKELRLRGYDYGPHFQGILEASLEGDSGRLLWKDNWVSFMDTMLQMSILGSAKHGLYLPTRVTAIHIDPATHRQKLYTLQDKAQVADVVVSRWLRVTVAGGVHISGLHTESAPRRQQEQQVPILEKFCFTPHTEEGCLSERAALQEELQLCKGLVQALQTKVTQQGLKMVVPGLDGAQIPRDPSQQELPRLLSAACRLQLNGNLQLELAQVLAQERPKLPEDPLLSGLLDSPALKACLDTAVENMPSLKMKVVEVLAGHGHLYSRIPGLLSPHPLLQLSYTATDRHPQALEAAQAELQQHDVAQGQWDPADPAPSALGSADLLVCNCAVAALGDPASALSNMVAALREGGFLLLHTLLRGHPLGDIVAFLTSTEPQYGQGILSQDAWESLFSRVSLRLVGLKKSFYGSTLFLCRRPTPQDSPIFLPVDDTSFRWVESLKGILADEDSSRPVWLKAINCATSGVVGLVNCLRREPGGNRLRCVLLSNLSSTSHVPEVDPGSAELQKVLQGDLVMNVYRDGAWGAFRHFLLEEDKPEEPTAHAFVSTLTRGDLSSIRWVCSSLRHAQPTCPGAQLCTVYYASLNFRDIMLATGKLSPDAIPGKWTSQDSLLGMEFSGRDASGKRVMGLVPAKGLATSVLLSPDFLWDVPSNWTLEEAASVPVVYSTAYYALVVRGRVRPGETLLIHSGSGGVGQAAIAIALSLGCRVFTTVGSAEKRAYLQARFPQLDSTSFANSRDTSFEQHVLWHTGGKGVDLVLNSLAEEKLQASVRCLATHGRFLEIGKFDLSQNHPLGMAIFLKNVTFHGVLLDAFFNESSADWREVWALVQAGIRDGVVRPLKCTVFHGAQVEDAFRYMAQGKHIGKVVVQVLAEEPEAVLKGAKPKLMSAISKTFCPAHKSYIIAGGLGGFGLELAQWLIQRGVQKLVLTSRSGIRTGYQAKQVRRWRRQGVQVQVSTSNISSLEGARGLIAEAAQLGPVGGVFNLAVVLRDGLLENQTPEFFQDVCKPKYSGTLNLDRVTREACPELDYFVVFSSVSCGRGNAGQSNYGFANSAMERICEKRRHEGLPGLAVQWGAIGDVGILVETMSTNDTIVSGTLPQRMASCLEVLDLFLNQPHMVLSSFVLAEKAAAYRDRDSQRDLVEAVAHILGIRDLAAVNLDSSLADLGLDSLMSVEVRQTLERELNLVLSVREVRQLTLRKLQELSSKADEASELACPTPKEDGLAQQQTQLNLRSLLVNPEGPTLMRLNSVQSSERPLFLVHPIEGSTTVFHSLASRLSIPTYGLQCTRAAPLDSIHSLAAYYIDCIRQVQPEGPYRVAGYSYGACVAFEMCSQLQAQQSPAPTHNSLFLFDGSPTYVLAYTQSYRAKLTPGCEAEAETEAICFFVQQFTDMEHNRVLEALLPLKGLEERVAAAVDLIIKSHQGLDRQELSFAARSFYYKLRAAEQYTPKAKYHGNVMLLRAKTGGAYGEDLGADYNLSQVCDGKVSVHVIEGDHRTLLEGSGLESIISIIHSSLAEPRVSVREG
T1 sequence (Q92731 whole entry): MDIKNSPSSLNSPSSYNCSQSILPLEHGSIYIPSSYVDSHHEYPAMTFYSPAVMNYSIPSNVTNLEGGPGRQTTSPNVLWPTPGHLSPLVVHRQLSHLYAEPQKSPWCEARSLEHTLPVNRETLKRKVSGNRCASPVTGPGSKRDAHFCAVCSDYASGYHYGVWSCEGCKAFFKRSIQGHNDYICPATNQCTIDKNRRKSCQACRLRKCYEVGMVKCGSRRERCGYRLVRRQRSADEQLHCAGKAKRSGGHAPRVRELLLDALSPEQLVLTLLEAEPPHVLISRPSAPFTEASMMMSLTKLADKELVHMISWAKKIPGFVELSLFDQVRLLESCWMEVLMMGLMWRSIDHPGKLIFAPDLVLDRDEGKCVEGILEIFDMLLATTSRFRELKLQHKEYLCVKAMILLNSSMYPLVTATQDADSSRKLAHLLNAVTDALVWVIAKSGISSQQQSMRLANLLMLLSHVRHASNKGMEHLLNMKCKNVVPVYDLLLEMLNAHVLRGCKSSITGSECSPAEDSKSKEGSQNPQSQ
Sequence of X-box-binding protein 1 (P17861 whole entry, the tested form may be a part): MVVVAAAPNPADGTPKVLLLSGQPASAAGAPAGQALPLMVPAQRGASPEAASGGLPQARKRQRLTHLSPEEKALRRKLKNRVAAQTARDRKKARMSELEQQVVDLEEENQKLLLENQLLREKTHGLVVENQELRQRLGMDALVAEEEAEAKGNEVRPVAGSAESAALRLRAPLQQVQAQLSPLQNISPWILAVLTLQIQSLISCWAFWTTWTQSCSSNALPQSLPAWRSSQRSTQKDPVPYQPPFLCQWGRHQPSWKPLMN
Sequence of Acyl-homoserine lactone acylase PvdQ (Q9I194 24-193 limits assumed): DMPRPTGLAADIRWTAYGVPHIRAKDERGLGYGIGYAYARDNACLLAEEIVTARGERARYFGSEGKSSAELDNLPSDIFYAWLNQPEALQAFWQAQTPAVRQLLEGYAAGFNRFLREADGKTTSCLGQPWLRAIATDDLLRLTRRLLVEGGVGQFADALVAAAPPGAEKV
Sequence of Acyl-homoserine lactone acylase PvdQ (Q9I194 217-762 limits assumed): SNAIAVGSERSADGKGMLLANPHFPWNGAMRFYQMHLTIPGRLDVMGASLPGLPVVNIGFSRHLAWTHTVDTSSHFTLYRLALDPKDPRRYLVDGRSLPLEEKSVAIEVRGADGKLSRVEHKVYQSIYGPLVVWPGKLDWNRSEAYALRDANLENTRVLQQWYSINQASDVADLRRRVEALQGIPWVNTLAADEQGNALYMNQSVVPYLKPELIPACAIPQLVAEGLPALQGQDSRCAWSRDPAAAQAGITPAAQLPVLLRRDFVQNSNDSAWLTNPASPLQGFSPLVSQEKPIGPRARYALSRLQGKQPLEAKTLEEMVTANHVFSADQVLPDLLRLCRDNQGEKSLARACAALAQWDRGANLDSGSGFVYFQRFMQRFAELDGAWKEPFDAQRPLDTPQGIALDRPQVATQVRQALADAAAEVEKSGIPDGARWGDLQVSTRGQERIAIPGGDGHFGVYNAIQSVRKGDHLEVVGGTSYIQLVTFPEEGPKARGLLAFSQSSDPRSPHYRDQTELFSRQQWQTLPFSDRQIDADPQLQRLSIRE
Sequence of Melanin-concentrating hormone receptor 1 (Q99705 whole entry): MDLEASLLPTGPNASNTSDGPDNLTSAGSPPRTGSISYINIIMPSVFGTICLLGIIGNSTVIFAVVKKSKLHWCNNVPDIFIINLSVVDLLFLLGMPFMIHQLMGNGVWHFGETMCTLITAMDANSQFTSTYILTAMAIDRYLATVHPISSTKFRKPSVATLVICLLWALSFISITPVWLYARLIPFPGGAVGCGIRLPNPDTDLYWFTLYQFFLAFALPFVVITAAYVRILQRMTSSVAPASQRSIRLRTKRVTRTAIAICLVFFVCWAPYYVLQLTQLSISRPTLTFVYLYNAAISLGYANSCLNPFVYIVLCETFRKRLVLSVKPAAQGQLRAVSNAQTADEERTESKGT
Sequence of Serine/threonine-protein phosphatase PP1-alpha catalytic subunit (P62136 whole entry): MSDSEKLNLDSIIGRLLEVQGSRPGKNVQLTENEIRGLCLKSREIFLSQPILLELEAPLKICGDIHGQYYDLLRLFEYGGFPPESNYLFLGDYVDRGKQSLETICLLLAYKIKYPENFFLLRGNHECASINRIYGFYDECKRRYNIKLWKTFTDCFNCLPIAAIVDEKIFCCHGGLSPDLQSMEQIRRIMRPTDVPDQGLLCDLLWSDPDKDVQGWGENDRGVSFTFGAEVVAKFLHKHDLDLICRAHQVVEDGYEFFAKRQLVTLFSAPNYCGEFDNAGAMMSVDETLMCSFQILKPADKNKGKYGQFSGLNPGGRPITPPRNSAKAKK

In the case of O=C(CNC1CCN(Cc2ccccc2)CC1)Nc1ccc(S(=O)(=O)N2CCCCC2)cc1, the EC50 [1] is reported as > 30 µM (not active), the EC50 [2] is reported as < 0.1 µM (active) and the EC50 (cells) is reported as 0.019 µM (active).

With Oc1c2c(nc3ccccc13)C(=C1CCCC1)CC2 the IC50 (Estrogen receptor beta [3]) was 1.69 µM (active) and the IC50 (Estrogen receptor beta [4]) was > 109 µM (not active).

For Nc1cc2nsnc2cc1Br, the IC50 [5] was > 67 µM (not active), the IC50 (Bcl-2-like protein 10) was 13.3 µM (active) and the IC50 (Genome polyprotein) was 48.7 µM (active). The IC50 [6] was 3.21 µM (active) and the IC50 [7] was > 2.48 µM (active).

For CC(C)C(=O)N1CCC(CNC=C2C(=O)N(C3CCCCC3)C(=O)N(C3CCCCC3)C2=O)CC1, the “Absolute IC50 (XBP1)” value (X-box-binding protein 1) was 10 µM.

For O=C(COc1ccc([N+](=O)[O-])cc1)NCCC1=CCCCC1, the IC50 (Fatty acid synthase [8]) was 8.16 µM (active), the IC50 (Fatty acid synthase [9]) was 10.1 µM (active) and the IC50 [10] was 22.2 µM (not active). The IC50 [11] was > 14.6 µM (not active).

In the case of CCOC(=O)c1cnn(-c2nc(SC)nc3sc4c(c23)CCC4)c1N, the IC50 (Estrogen receptor beta [3]) is reported as > 50 µM (not active) and the IC50 (Estrogen receptor beta [4]) is reported as 0.069 µM (not active).

With Cc1ccc(SCCOCCN2CCc3ccccc3C2)cc1 the EC50 [1] was > 60 µM (not active), the EC50 [2] was < 0.1 µM (active) and the EC50 (cells) was 0.037 µM (active).

For COC(=O)c1noc(-c2ccc(OC)cc2)n1, the AC50 [12] was > 100 µM (inactive).

For O=C(NC1CCCCCCC1)c1cc([N+](=O)[O-])ccc1Cl, the IC50 (Fatty acid synthase [8]) was 9.4 µM (active), the IC50 (Fatty acid synthase [9]) was 7.35 µM (active) and the AC50 [12] was 40.8 µM (active).

In the case of Clc1ccc(-n2c(SC/C=C/c3ccccc3)nnc2-c2cccnc2)cc1, the IC50 [10] is reported as 8.43 µM (active), the EC50 [13] is reported as 46.1 µM (active) and the IC50 [11] is reported as 16.9 µM (not active).

With COc1ccc(-c2csc(N(CCCN(C)C)C(=O)c3ccccc3F)n2)cc1 the CC50 (Vero) was > 80 µM (active).

With Cc1ccc(OCC(=O)N/N=C/c2c[nH]nc2-c2ccc(Cl)c(Cl)c2)cc1 the “Absolute IC50 (XBP1)” value (X-box-binding protein 1) was 10 µM.

With O=C1CCCN1CC#CCN1CCCC1 [OXOTREMORINE] the EC50 (Mucolipin-3) was > 29.9 µM (not active) and the EC50 (Ion channel NompC) was > 29.9 µM (not active).
